Experimental data reported in ChEMBL document CHEMBL1201861, “Genomics of Drug Sensitity in Cancer screening data, Wellcome Trust Sanger Institute”.

Tests used:
Test in all cases: cells
[1] = system: D283 Med; assay type: functional, cell-based, Homo sapiens; conditions: Homo sapiens, D283 Med
Description: SANGER: Inhibition of human D-283MED cell growth in a cell viability assay.

[2] = system: RS4-11; assay type: functional, cell-based, Homo sapiens; conditions: Homo sapiens, RS4-11;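 also: growth inhibition of RS4-11 cells, read out by a cell viability assay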
Description: SANGER: Inhibition of human RS4-11 cell growth in a cell viability assay.

[3] = system: NCI-H526; assay type: functional, cell-based, Homo sapiens; conditions: Homo sapiens, NCI-H526;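 also: growth inhibition of the human NCI-H526 cell line, measured by a cell viability assay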
Description: SANGER: Inhibition of human NCI-H526 cell growth in a cell viability assay.

[4] = system: EW-24; assay type: functional, cell-based, Homo sapiens; conditions: Homo sapiens, EW-24;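 also: human EW-24 cancer cell line, growth inhibition read out via a cell viability assay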
Description: SANGER: Inhibition of human EW-24 cell growth in a cell viability assay.

[5] = system: NB69; assay type: functional, cell-based, Homo sapiens; conditions: Homo sapiens, NB69;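 also: growth inhibition of NB69 cells, determined by a cell viability assay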
Description: SANGER: Inhibition of human NB69 cell growth in a cell viability assay.

[6] = system: TK-10; assay type: functional, cell-based, Homo sapiens; conditions: Homo sapiens, TK-10;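 also: growth inhibition of TK-10 cells, read out in a cell viability assay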
Description: SANGER: Inhibition of human TK10 cell growth in a cell viability assay.

[7] = system: HDLM-2; assay type: functional, cell-based, Homo sapiens; conditions: Homo sapiens, HDLM-2;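 also: cell viability assay measuring suppression of HDLM-2 proliferation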
Description: SANGER: Inhibition of human HDLM-2 cell growth in a cell viability assay.

[8] = system: NCI-H747; assay type: functional, cell-based, Homo sapiens; conditions: Homo sapiens, NCI-H747;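 also: growth inhibition of human NCI-H747 cells, read out by a cell viability assay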
Description: SANGER: Inhibition of human NCI-H747 cell growth in a cell viability assay.

[9] = system: SK-NEP-1; assay type: functional, cell-based, Homo sapiens; conditions: Homo sapiens, SK-NEP-1;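 also: growth inhibition of human SK-NEP-1 cells, read out by a cell viability assay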
Description: SANGER: Inhibition of human SK-NEP-1 cell growth in a cell viability assay.

[10] = system: D-247MG; assay type: functional, cell-based, Homo sapiens; conditions: Homo sapiens, D-247MG
Description: SANGER: Inhibition of human D-247MG cell growth in a cell viability assay.

[11] = system: MPP-89; assay type: functional, cell-based, Homo sapiens; conditions: Homo sapiens, MPP-89;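 also: growth inhibition of human MPP-89 cells, read out with a cell viability assay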
Description: SANGER: Inhibition of human MPP-89 cell growth in a cell viability assay.

[12] = system: GB-1; assay type: functional, cell-based, Homo sapiens; conditions: Homo sapiens, GB-1;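 also: growth of GB-1 cells judged by a viability assay, IC50 marks the concentration inhibiting growth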
Description: SANGER: Inhibition of human GB-1 cell growth in a cell viability assay.

[13] = system: DU-4475; assay type: functional, cell-based, Homo sapiens; conditions: Homo sapiens, DU-4475
Description: SANGER: Inhibition of human DU-4475 cell growth in a cell viability assay.

[14] = system: OCUB-M; assay type: functional, cell-based, Homo sapiens; conditions: Homo sapiens, OCUB-M;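 also: growth inhibition of the cancer cell line, read out through a cell viability assay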
Description: SANGER: Inhibition of human OCUB-M cell growth in a cell viability assay.

[15] = system: D-502MG; assay type: functional, cell-based, Homo sapiens; conditions: Homo sapiens, D-502MG
Description: SANGER: Inhibition of human D-502MG cell growth in a cell viability assay.

[16] = system: CAS-1; assay type: functional, cell-based, Homo sapiens; conditions: Homo sapiens, CAS-1;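 also: growth inhibition of CAS-1 cells, measured with a cell viability assay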
Description: SANGER: Inhibition of human CAS-1 cell growth in a cell viability assay.

[17] = system: GI-ME-N; assay type: functional, cell-based, Homo sapiens; conditions: Homo sapiens, GI-ME-N;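 also: growth inhibition of human GI-ME-N cells, read out with a cell viability assay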
Description: SANGER: Inhibition of human GI-ME-N cell growth in a cell viability assay.

[18] = system: Ramos-2G6-4C10; assay type: functional, cell-based, Homo sapiens; conditions: Homo sapiens, Ramos-2G6-4C10;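 also: growth inhibition of the cell line, measured by a cell viability read-out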
Description: SANGER: Inhibition of human Ramos-2G6-4C10 cell growth in a cell viability assay.

[19] = system: KS-1; assay type: functional, cell-based, Homo sapiens; conditions: Homo sapiens, KS-1;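 also: growth inhibition of KS-1 cells, read out with a cell viability assay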
Description: SANGER: Inhibition of human KS-1 cell growth in a cell viability assay.

[20] = system: EW-11; assay type: functional, cell-based, Homo sapiens; conditions: Homo sapiens, EW-11;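 also: growth inhibition of human EW-11 cells, measured with a cell viability assay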
Description: SANGER: Inhibition of human EW-11 cell growth in a cell viability assay.

[21] = system: NCI-H1304; assay type: functional, cell-based, Homo sapiens; conditions: Homo sapiens, NCI-H1304;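 also: growth inhibition of the cancer cell line, measured in a cell viability assay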
Description: SANGER: Inhibition of human NCI-H1304 cell growth in a cell viability assay.

[22] = system: GOTO; assay type: functional, cell-based, Homo sapiens; conditions: Homo sapiens, GOTO;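 also: growth inhibition of GOTO cells, read out by a cell viability assay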
Description: SANGER: Inhibition of human GOTO cell growth in a cell viability assay.

[23] = system: MSTO-211H; assay type: functional, cell-based, Homo sapiens; conditions: Homo sapiens, MSTO-211H
Description: SANGER: Inhibition of human MSTO-211H cell growth in a cell viability assay.

[24] = system: K5; assay type: functional, cell-based, Homo sapiens; conditions: Homo sapiens, K5
Description: SANGER: Inhibition of human K5 cell growth in a cell viability assay.

[25] = system: IST-SL1; assay type: functional, cell-based, Homo sapiens; conditions: Homo sapiens, IST-SL1;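 also: growth inhibition of human IST-SL1 cells, read out with a cell viability assay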
Description: SANGER: Inhibition of human IST-SL1 cell growth in a cell viability assay.

[26] = system: MMAC-SF; assay type: functional, cell-based, Homo sapiens; conditions: Homo sapiens, MMAC-SF;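 also: growth inhibition of human MMAC-SF cells, read out with a cell viability assay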
Description: SANGER: Inhibition of human MMAC-SF cell growth in a cell viability assay.

[27] = system: IST-MES1; assay type: functional, cell-based, Homo sapiens; conditions: Homo sapiens, IST-MES1;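 also: growth inhibition of IST-MES1 cells, measured with a cell viability assay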
Description: SANGER: Inhibition of human IST-MES1 cell growth in a cell viability assay.

[28] = system: RCC10RGB; assay type: functional, cell-based, Homo sapiens; conditions: Homo sapiens, RCC10RGB;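 also: growth inhibition of human RCC10RGB cells, read out by a cell viability assay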
Description: SANGER: Inhibition of human RCC10RGB cell growth in a cell viability assay.

[29] = system: U-87 MG; assay type: functional, cell-based, Homo sapiens, U-87MG ATCC; conditions: Homo sapiens, U-87 MG;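 also: growth inhibition of the cells measured with a viability assay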
Description: SANGER: Inhibition of human U-87-MG cell growth in a cell viability assay.

[30] = system: EM-2; assay type: functional, cell-based, Homo sapiens; conditions: Homo sapiens, EM-2;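 also: growth inhibition of EM-2 cells, read out with a cell viability assay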
Description: SANGER: Inhibition of human EM-2 cell growth in a cell viability assay.

[31] = system: NCI-H1355; assay type: functional, cell-based, Homo sapiens; conditions: Homo sapiens, NCI-H1355;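 also: growth inhibition of human NCI-H1355 cells, read out by a cell viability assay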
Description: SANGER: Inhibition of human NCI-H1355 cell growth in a cell viability assay.

[32] = system: CGTH-W-1; assay type: functional, cell-based, Homo sapiens; conditions: Homo sapiens, CGTH-W-1;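 also: growth inhibition of human CGTH-W-1 cells measured by cell viability assay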
Description: SANGER: Inhibition of human CGTH-W-1 cell growth in a cell viability assay.

[33] = system: SK-MEL-1; assay type: functional, cell-based, Homo sapiens; conditions: Homo sapiens, SK-MEL-1;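 also: growth inhibition of human SK-MEL-1 cells, read out by a cell viability assay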
Description: SANGER: Inhibition of human SK-MEL-1 cell growth in a cell viability assay.

[34] = system: TE-6; assay type: functional, cell-based, Homo sapiens; conditions: Homo sapiens, TE-6;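 also: growth inhibition of TE-6 cells, read out with a cell viability assay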
Description: SANGER: Inhibition of human TE-6 cell growth in a cell viability assay.

[35] = system: NCI-H510A; assay type: functional, cell-based, Homo sapiens; conditions: Homo sapiens, NCI-H510A;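 also: growth inhibition of NCI-H510A cells, read out with a cell viability assay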
Description: SANGER: Inhibition of human NCI-H510A cell growth in a cell viability assay.

[36] = system: C2BBe1; assay type: functional, cell-based, Homo sapiens; conditions: Homo sapiens, C2BBe1;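 also: growth inhibition of C2BBe1 cells, read out through a viability assay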
Description: SANGER: Inhibition of human C2BBe1 cell growth in a cell viability assay.

[37] = system: NCI-H1395; assay type: functional, cell-based, Homo sapiens; conditions: Homo sapiens, NCI-H1395;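 also: cell viability assay read-out quantifying reduced proliferation of human NCI-H1395 cells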
Description: SANGER: Inhibition of human NCI-H1395 cell growth in a cell viability assay.

[38] = system: MOLT-16; assay type: functional, cell-based, Homo sapiens; conditions: Homo sapiens, MOLT-16;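 also: growth inhibition of human MOLT-16 cells, read out with a cell viability assay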
Description: SANGER: Inhibition of human MOLT-16 cell growth in a cell viability assay.

[39] = system: NB13; assay type: functional, cell-based, Homo sapiens; conditions: Homo sapiens, NB13;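 also: cell viability readout measuring growth inhibition of human NB13 cells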
Description: SANGER: Inhibition of human NB13 cell growth in a cell viability assay.

[40] = system: GI-1; assay type: functional, cell-based, Homo sapiens; conditions: Homo sapiens, GI-1;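 also: growth inhibition of human GI-1 cells, measured with a cell viability readout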
Description: SANGER: Inhibition of human GI-1 cell growth in a cell viability assay.

[41] = system: U-266; assay type: functional, cell-based, Homo sapiens; conditions: Homo sapiens, U-266
Description: SANGER: Inhibition of human U-266 cell growth in a cell viability assay.

[42] = system: DSH1; assay type: functional, cell-based, Homo sapiens; conditions: Homo sapiens, DSH1;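 also: growth inhibition of human DSH1 cells, measured with a cell viability readout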
Description: SANGER: Inhibition of human DSH1 cell growth in a cell viability assay.

[43] = system: HOP-62; assay type: functional, cell-based, Homo sapiens; conditions: Homo sapiens, HOP-62;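 also: cell growth inhibition determined with a viability assay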
Description: SANGER: Inhibition of human HOP-62 cell growth in a cell viability assay.

[44] = system: OS-RC-2; assay type: functional, cell-based, Homo sapiens; conditions: Homo sapiens, OS-RC-2;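 also: growth inhibition of human OS-RC-2 cells, measured by a cell viability assay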
Description: SANGER: Inhibition of human OS-RC-2 cell growth in a cell viability assay.

[45] = system: BE-13; assay type: functional, cell-based, Homo sapiens; conditions: Homo sapiens, BE-13;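 also: growth inhibition of human BE-13 cells, measured with a cell viability assay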
Description: SANGER: Inhibition of human BE-13 cell growth in a cell viability assay.

[46] = system: EW-3; assay type: functional, cell-based, Homo sapiens; conditions: Homo sapiens, EW-3;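 also: cell viability assay read-out, IC50 reflects inhibition of growth of the EW-3 cells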
Description: SANGER: Inhibition of human EW-3 cell growth in a cell viability assay.

[47] = system: SNU-C2B; assay type: functional, cell-based, Homo sapiens; conditions: Homo sapiens, SNU-C2B;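 also: cell viability readout used to measure compound-driven suppression of SNU-C2B cell proliferation, IC50 marking half-maximal growth inhibition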
Description: SANGER: Inhibition of human SNU-C2B cell growth in a cell viability assay.

[48] = system: IA-LM; assay type: functional, cell-based, Homo sapiens; conditions: Homo sapiens, IA-LM;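 also: cell viability assay measuring growth inhibition of human IA-LM cells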
Description: SANGER: Inhibition of human IA-LM cell growth in a cell viability assay.

[49] = system: TE-11; assay type: functional, cell-based, Homo sapiens; conditions: Homo sapiens, TE-11;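 also: growth inhibition of human TE-11 cells, read out by a cell viability assay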
Description: SANGER: Inhibition of human TE-11 cell growth in a cell viability assay.

## CC[C@H](CO)Nc1nc(NCc2ccccc2)c2ncn(C(C)C)c2n1 [SELICICLIB]
[1]
  IC50: > 16 µM
[2]
  IC50: > 16 µM
[3]
  IC50: > 16 µM
[4]
  IC50: > 16 µM
[5]
  IC50: > 16 µM
[6]
  IC50: > 16 µM
[7]
  IC50: > 16 µM
[8]
  IC50: > 16 µM
[9]
  IC50: > 16 µM
[10]
  IC50: 12.4 µM
[11]
  IC50: > 16 µM
[12]
  IC50: > 16 µM
[13]
  IC50: > 16 µM
[14]
  IC50: > 16 µM
[15]
  IC50: > 16 µM
[16]
  IC50: > 16 µM
[17]
  IC50: > 16 µM
[18]
  IC50: > 16 µM
[19]
  IC50: 9.46 µM
[20]
  IC50: > 16 µM
[21]
  IC50: > 16 µM
[22]
  IC50: > 16 µM
[23]
  IC50: > 16 µM
[24]
  IC50: > 16 µM
[25]
  IC50: > 16 µM
[26]
  IC50: > 16 µM
[27]
  IC50: > 16 µM
[28]
  IC50: > 16 µM
[29]
  IC50: > 16 µM
[30]
  IC50: > 16 µM
[31]
  IC50: > 16 µM
[32]
  IC50: > 16 µM
[33]
  IC50: > 16 µM
[34]
  IC50: > 16 µM
[35]
  IC50: > 16 µM
[36]
  IC50: > 16 µM
[37]
  IC50: > 16 µM
[38]
  IC50: > 16 µM
[39]
  IC50: > 16 µM
[40]
  IC50: > 16 µM
[41]
  IC50: > 16 µM
[42]
  IC50: > 16 µM
[43]
  IC50: > 16 µM
[44]
  IC50: 15.8 µM
[45]
  IC50: > 16 µM
[46]
  IC50: > 16 µM

## CCN(CC)CCNC(=O)c1c(C)[nH]c(/C=C2\C(=O)Nc3ccc(F)cc32)c1C [SUNITINIB]
[1]
  IC50: > 8 µM
[3]
  IC50: > 8 µM
[4]
  IC50: > 8 µM
[47]
  IC50: > 8 µM
[5]
  IC50: > 8 µM
[6]
  IC50: > 8 µM
[7]
  IC50: 6.32 µM
[8]
  IC50: > 8 µM
[48]
  IC50: > 8 µM
[9]
  IC50: 2.6 µM
[10]
  IC50: > 8 µM
[11]
  IC50: > 8 µM
[12]
  IC50: 0.71 µM
[13]
  IC50: 4.37 µM
[14]
  IC50: > 8 µM
[15]
  IC50: > 8 µM
[16]
  IC50: > 8 µM
[17]
  IC50: > 8 µM
[18]
  IC50: > 8 µM
[19]
  IC50: 1.69 µM
[20]
  IC50: > 8 µM
[21]
  IC50: > 8 µM
[22]
  IC50: > 8 µM
[23]
  IC50: > 8 µM
[24]
  IC50: > 8 µM
[25]
  IC50: > 8 µM
[26]
  IC50: 6.11 µM
[27]
  IC50: > 8 µM
[28]
  IC50: > 8 µM
[29]
  IC50: > 8 µM
[30]
  IC50: > 8 µM
[31]
  IC50: 7.46 µM
[32]
  IC50: 0.0309 µM
[33]
  IC50: > 8 µM
[34]
  IC50: > 8 µM
[35]
  IC50: > 8 µM
[36]
  IC50: > 8 µM
[49]
  IC50: 1840 nM
[37]
  IC50: > 8 µM
[38]
  IC50: 0.631 µM
[39]
  IC50: > 8 µM
[40]
  IC50: > 8 µM
[41]
  IC50: > 8 µM
[42]
  IC50: > 8 µM
[43]
  IC50: 4.34 µM
[44]
  IC50: 4.87 µM
[45]
  IC50: 3.23 µM
[46]
  IC50: 6.43 µM

## CS(=O)(=O)c1ccc(C(=O)Nc2ccc(Cl)c(-c3ccccn3)c2)c(Cl)c1 [VISMODEGIB]
[1]
  IC50: > 10 µM
[2]
  IC50: > 10 µM
[3]
  IC50: > 10 µM
[4]
  IC50: > 10 µM
[47]
  IC50: > 10 µM
[5]
  IC50: > 10 µM
[6]
  IC50: > 10 µM
[7]
  IC50: 8.05 µM
[8]
  IC50: > 10 µM
[48]
  IC50: > 10 µM
[9]
  IC50: > 10 µM
[10]
  IC50: > 10 µM
[11]
  IC50: > 10 µM
[12]
  IC50: > 10 µM
[14]
  IC50: > 10 µM
[15]
  IC50: > 10 µM
[16]
  IC50: > 10 µM
[17]
  IC50: > 10 µM
[18]
  IC50: > 10 µM
[19]
  IC50: > 10 µM
[20]
  IC50: > 10 µM
[21]
  IC50: > 10 µM
[22]
  IC50: > 10 µM
[23]
  IC50: > 10 µM
[24]
  IC50: > 10 µM
[25]
  IC50: > 10 µM
[26]
  IC50: > 10 µM
[27]
  IC50: > 10 µM
[28]
  IC50: > 10 µM
[29]
  IC50: > 10 µM
[30]
  IC50: > 10 µM
[31]
  IC50: > 10 µM
[32]
  IC50: > 10 µM
[33]
  IC50: > 10 µM
[34]
  IC50: > 10 µM
[35]
  IC50: > 10 µM
[36]
  IC50: > 10 µM
[49]
  IC50: > 10000 nM
[37]
  IC50: > 10 µM
[38]
  IC50: > 10 µM
[39]
  IC50: > 10 µM
[40]
  IC50: > 10 µM
[41]
  IC50: > 10 µM
[42]
  IC50: > 10 µM
[43]
  IC50: > 10 µM
[44]
  IC50: > 10 µM
[45]
  IC50: > 10 µM
